Test results from patent EP4631928A1, “METHOD OF PURIFICATION OF GLYCOLIC ACID, COMPOSITION AND USE THEREOF” (Metabolic Explorer, priority 2024, dated 2025).

Tests used:
[1] = tested on: SKINETHIC™ RHE model; experiment: Tissue viability, MTT assay on 3D reconstructed human epidermis after topical application; assay type: cell-based; settings: for Tissue viability / EC50: 24 hours; for Tissue viability: relative to untreated epidermis; for EC50 value / EC50: concentration reducing viability to 50% of control tissues; for EC50: probit-log regression
Description: (§1) The assay takes place in two steps: • Step 1: EC50 concentration finding assay is performed with one representative sample. • Step 2: determination of EC50 concentration values and IL-1α levels performed with both GA.
(§2) Prior to GA application, tissue inserts are transferred in 12-well plates prefilled with fresh maintenance medium. 60 µl/cm^2 of each GA solution is applied on top of epidermidis. After application, tissues are incubated for 24 hours at 37°C (±1 °C) and 5% ([…]) CO2.
(§3) The tissue viability is measured with the MTT assay performed in 24 hours. The MTT assay is based on the reduction of 3-(4,5-Dimethylthiazol-2-yl)-2,5-Diphenyltetrazolium Bromide (MTT) into insoluble purple formazan crystals, by metabolically active cells in a mitochondria-dependant reaction catalysed by succinate dehydrogenase. The ability of cells to reduce MTT after exposure to GA, compared to the control (untreated epidermis), enables to deduce the relative toxicity of the applied GA. The optical density (OD) of formazan solution is proportional to the number of viable cells.
(§4) After incubation, tissues are rinsed with PBS and then transferred into 24-well plates pre-filled with MTT solution. After 120 minutes (±10 minutes) of incubation at 37°C (±1 °C), the tissues are transferred into 24-well plates containing DMSO for extraction of formazan. Then the plates are stored overnight at room temperature. At the end of the extraction period, 3 x 200 µl aliquots of formazan extracts are transferred into a 96-well flat bottom microtiter plate and the optical density is read at 570 nm in a microplate reader.
(§5) The optical densities of each replicate are corrected by substracting the mean OD value of blank measured in parallel. The mean from corrected OD values (ODcorr) as well as standard deviation are calculated in each experimental group.
(§6) From the mean ODcorr values, the relative tissue viability (% viab) is calculated as a percentage of the mean viability of the control (untreated epidermis): % viab (treated) = ((treated) ODcorr mean)/((Control ODcorr mean) × 100. [formula]
(§7) The graph represents the dose response curve of cells viability (% viab) versus the GA concentration (C). The EC50 value is calculated from the dose response curve, by using the probit-log regression model.

[2] = tested on: interleukin 1α (IL-1α); experiment: Inflammatory response, IL-1α release assay (ELISA) on reconstructed human epidermis; assay type: cell-based; settings: IL-1α level normalized to tissue viability, 24 hours
Excerpt: The 3D reconstructed human epidermis (RhE) used as test system in the study, is the SKINETHIC™ RHE model commercially available from the company EPISKIN SA. The SKINETHIC™ RHE model is obtained by tissue engineering from untransformed human keratinocytes previously obtained from human epidermis. The model is described in the OECD 439 guideline for in vitro skin irritation of chemical products.
The assay is based on topical application of the tested GA at different concentrations on reconstructed human epidermis (RHE SkinEthic™), followed by evaluation of: • Tissue viability, by MTT colorimetric test to determine the concentration of test product needed to produce the viability to 50% of control tissues (EC50). • SkinEthic™ RHE tissue inflammatory response, by interleukin 1α (IL-1α) release assay.
as §2
At the end of the assay after 24 hours incubation period, the conditioned media underneath tissues are collected, aliquoted and stored at -20°C until IL-1α assay.
IL-1α is quantified using an Elisa kit (Quantikine Human IL-1α DLA50) according to the manufacturer's instructions. The optical densities are read at 450 nm.
IL-1α levels (pg/ml) are interpolated from the standard curve built with IL-1α standard provided with the Elisa kit. The mean of IL-1α release concentrations is calculated in each experimental group. For the comparative analysis, the IL-1α levels were normalized in function of tissue viability (MMT test). The values R (IL-1α/Viab%) ×100) have been calculated at different concentrations with the two GA and collected in the following Table 18: Table 18: IL-1α ratios.

[3] = tested on: skin; experiment: Usage test, panel questionnaire on skin quality; assay type: in vivo, human; settings: between the 7th and the 14th day
Excerpt: A panel of 60 women with mature skin ranging from normal to dry, were selected to apply to each half of the face, the two tested items: GA-METEX and GA-CONTROL. The panelists were asked about their feeling after 7 and 14 days of daily application. The questionnaire covered items: nourished skin, uniform skin, smooth skin, luminous skin, finer skin texture, firm skin.

[4] = Tissue viability, MTT assay on 3D reconstructed human epidermis after topical application; assay type: cell-based; settings: human, 24 hours, relative to untreated epidermis
Description: as §1, §2, §3, §4, §5, §6, §7

Row | Structure (SMILES) | Tissue viability ([1]; GA concentration 1.27%) | Tissue viability ([1]; GA concentration 1.69%) | Tissue viability ([1]; GA concentration 2.25%) | Tissue viability ([1]; GA concentration 3%) | EC50 value [1] | EC50 [1] | R (IL-1α/Viab%) ×100 ([2]; GA concentration 1.27%) | R (IL-1α/Viab%) ×100 ([2]; GA concentration 1.69%) | R (IL-1α/Viab%) ×100 ([2]; GA concentration 2.25%) | user satisfaction, evolution [3] | viability at 24 h, 1.27 % ([4]; GA concentration 1.27%) | viability at 24 h, 3 % ([4]; GA concentration 3%)
1 | O=C(O)CO [GA-CONTROL, Glycolic acid] | 62.1% | 31.2% | 10.5% | 3.4% | 1.42% | 1.42 % p/v | 15.09 | 35.33 | 75.07 |  |  | 
2 | O=C(O)CO [GA-METEX, Glycolic acid] |  | 59,6% | 22.2% |  | 1.70% | 1.70 % p/v | 10.42 | 18.26 | 35.56 | significant increase in user satisfaction | 74.9% | 3.5%
